A short description of data set [1]: CMC by dye uptake (orange OT). The data set is classed as physicochemical. From the text: Triphenylacetic acid 4.0 has a novel amphiphilic geometry and is commercially available.
The addition of the t-butyl group accomplished the goal of increasing the hydrophobic surface area, as indicated by the diminished CMC's.
The CMC of a detergent can be determined experimentally by measuring the solubilization of a water-insoluble dye or fluorophore while varying the concentration of detergent. CMC may also be determined by measuring the diminution of the surface tension of an aqueous solution as a function of detergent concentration. (CMC's determined by either method correlate with each other.) The CMC is determined by extrapolating the plot of solubilization vs. concentration (or surface tension vs. concentration) in the two linear regions above and below the CMC. Where the two lines intersect is the CMC. In this Example, CMC's were determined by the method of Nugebauer, J. M. (1990), Methods in Enzymology, 182:239-253: […]

A short description of data set [2]: Aqueous solubility. The data set is classed as physicochemical. To be noted: water.
For data set [3] the following is noted: comparison detergent, source not given; cited from earlier work.
The target in data set [4] is T1, Bacteriorhodopsin (BR) (Halobacterium salinarum, UniProt P02945).
T1 construct: We used BR solubilization from the PM to evaluate tripod detergents; endogenous in cells
T1 sequence (P02945 14-261 limits assumed): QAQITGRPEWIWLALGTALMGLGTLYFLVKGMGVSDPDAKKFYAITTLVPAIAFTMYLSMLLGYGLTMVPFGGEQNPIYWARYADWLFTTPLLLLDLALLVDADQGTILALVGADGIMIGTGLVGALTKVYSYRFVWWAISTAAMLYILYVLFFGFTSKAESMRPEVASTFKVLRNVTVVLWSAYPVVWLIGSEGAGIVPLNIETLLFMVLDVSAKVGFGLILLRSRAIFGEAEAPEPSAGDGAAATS
The conditions noted are these: reported detergents; cited from earlier work.

Data set [5] concerns the target T1, Bacteriorhodopsin (BR). Description: Solubilization of bacteriorhodopsin (BR) from purple membrane (PM). The procedure:
We used BR solubilization from the PM to evaluate tripod detergents synthesized using the modular synthetic approach described above. The retinal chromophore of BR allowed us to quantify solubilized material by UV. Solubilized BR is defined as the intact protein left in the supernatant after a sample is centrifuged for 30 minutes at 300,000 g. The percent BR solubilized is determined by dividing the absorbance of the supernatant by the absorbance of the solution before centrifugation.
Solubilization experiments were conducted by making a series of solutions with constant concentration of PM and varying the concentration of detergent. […] The absorbance at the λmax (between 540 nm and 570 nm) was then measured, and immediately afterward the samples were centrifuged for 30 minutes at 300,000 g. The supernatant was carefully removed so as not to disturb pelleted material. Absorbance measurements were made again, and the ratio of the supernatant absorbance to the absorbance before centrifugation provided the percent solubilization.

Data set [6] is described as follows: CMC values of conventional detergents quoted for comparison. The data set is classed as physicochemical.
Data set [7] can be described thus: CMC by uptake of fluorescent dye 1,6-diphenylhexatriene, fluorescence spectroscopy. The data set is classed as physicochemical. The procedure:
The CMCs of detergents 4.65-4.72 were determined by monitoring the uptake of a fluorescent dye (1,6-diphenylhexatriene) with increasing detergent concentration (Table 1, CMC's determined by dye uptake versus concentration monitored by fluorescence spectroscopy). The CMCs of N-oxide isomers 4.65, 4.67, and 4.68 are very similar: 3 mM, 3 mM, and […], respectively. […] The CMCs for the N-oxides 4.65 and 4.66 are twice the CMCs of the corresponding hydrochloride salts (4.78 and 4.79). The hydrochloride salts were formed from the amine precursors to the N-oxides. Most cationic detergents have CMCs that are much higher than non-ionic or zwitterionic analogs. For example, dodecylammonium bromide has a CMC of 15 mM which is >7 times larger than the CMC of the N-oxide analog (LDAO, CMC=2 mM).
The CMCs of 4.100 and 4.104 were determined by the uptake of the fluorescent dye 1,6-diphenylhexatriene. The CMCs are 0.125 mM and 0.700 mM respectively. These values are substantially lower than the CMC of 4.65, which was determined to be 3 mM.
The CMC of a detergent can be determined experimentally by measuring the solubilization of a water-insoluble dye or fluorophore while varying the concentration of detergent. CMC may also be determined by measuring the diminution of the surface tension of an aqueous solution as a function of detergent concentration. (CMC's determined by either method correlate with each other.) The CMC is determined by extrapolating the plot of solubilization vs. concentration (or surface tension vs. concentration) in the two linear regions above and below the CMC. Where the two lines intersect is the CMC. In this Example, CMC's were determined by the method of Nugebauer, J. M. (1990), Methods in Enzymology, 182:239-253:
Tripod solutions in aqueous solutions containing 25 mM sodium phosphate pH 6.9 were prepared and transferred to screw-capped vials, and […] of a 1,6-diphenylhexatriene solution (DPH, 3.125 mM DPH in THF) was added. The solutions were vortexed at room temperature for 30 seconds. The solutions were placed into a 3 mm×3mm quartz cell and the fluorescence spectrum was obtained (excitation 358 nm, emission 430 nm, excitation slit width=1 mm, emission slit width=20 nm, PMT voltage=700). The fluorescence intensity of each sample was plotted against amphiphile concentration. […] The data points immediately surrounding the CMC were not considered due to non-linear behavior. See Tables 1 and 2, above, for the results.

Data set [8] concerns BR. Briefly: Loss of exciton coupling of BR by CD spectra (rate of solubilization). On the set-up: species or system Halobacterium. To be noted: room temperature. The procedure: Tripod detergents 4.65 and 4.66 were tested in this fashion and shown to solubilize BR from the PM quite rapidly. To measure whether the solublized BR was present in a monomeric state, CD spectra of the supernatants were taken. When suspended within the native PM, BR yields a distinct sigmoidal CD spectrum due to exciton coupling between adjacent retinal chromophores. It has been shown that the strength of the exciton coupling is directly proportional to the concentration of retinal chromophore in the PM. Because the exciton coupling requires retinals to be held in a fixed geometry (as when suspended in the PM), the solubilization of BR can be measured in terms of the loss of exciton coupling. […] Exciton coupling was completely gone after less than 10 minutes for samples solubilized by 4.65 and 4.66, a time period which is faster than the time required to obtain a CD spectrum.

In brackets after ≈: the same amount, converted by molar mass. Entries after “also recorded” stand apart in the source; their conditions may differ. Read-outs that look alike come from different tables or passages of the source. Bounds are passed on as bounds.

For the compound `CC(C)(C)c1ccc(C(CC(=O)N(CC[N+](C)(C)[O-])CC[N+](C)(C)[O-])(c2ccccc2)c2ccccc2)cc1` [Detergent 4.20], in data set [1] (dye uptake), the CMC entry is listed as “about 12.5 mM”.

With `C[N+](C)([O-])CCN(CC[N+](C)(C)[O-])C(=O)CC(c1ccccc1)(c1ccccc1)c1ccccc1` [Detergent 4.10], the CMC entry in data set [1] (dye uptake) is recorded as “about 80 mM”. For the same compound, the “solubility in water (in words)” value in data set [2] is “very soluble in water”. Also, the solubility (usually how much of the substance goes into solution per volume) in data set [2] (read-out: solubility in water) is above 2000 mM.

On to `CCCCCCCCCCCC[N+](C)(C)[O-]` [DDAO, dodecylammonium-N-oxide], for which the CMC in data set [3] is recorded as 10.4 mM.

`CCCCCCCCCO[C@@H]1O[C@H](CO)[C@@H](O)[C@H](O)[C@H]1O` [nonyl glucoside (NG), nonyl glucoside]: in data set [4], the “removal of BR from the purple membrane (in words)” value (shortened to “removal of BR”) is recorded as “successfully remove BR from its native environment”.

For the compound `O=C(O)C(c1ccccc1)(c1ccccc1)c1ccccc1` [Detergent 4.1], in data set [1] (orange OT uptake), the CMC is given as 130 mM. For the same compound, the solubility in data set [2] (read-out: solubility) stood at 210 mM (≈ 60.6 mg/mL).

Take Triton X-100 [reference compound]: in data set [5], the “BR solubilization (in words)” value is reported as “effective at solubilizing BR”. The “time to solubilize BR” value in data set [5] (pH 5) was 49 h; in data set [5] (pH 6.9) it was 24 h. The “removal of BR” value in data set [4] is “successfully remove BR from its native environment”.

`Br.CCCCCCCCCCCCN` [dodecylammonium bromide]: the “CMC ratio, dodecylammonium bromide vs N-oxide analog (LDAO)” value in data set [6] was above 7 times larger. Further, the CMC in data set [3] was 15 mM.

For the compound `CCCCCCCCO[C@@H]1O[C@H](CO)[C@@H](O)[C@H](O)[C@H]1O` [OG], in data set [4], the “removal of BR” value is given as “successfully remove BR from its native environment”.

For the compound `CCCCC(CCCC)(CC(=O)N(CC)CC[N+](C)(C)[O-])c1ccccc1` [Detergent 4.65], the “BR solubilization (in words)” value in data set [5] was “can solubilize BR”. Besides, the BR solubilization entry in data set [5] (>99% pure by HPLC) is reported as “greater than 90%”. Also, in data set [7] (4.65 vs 4.78, 4.66 vs 4.79), the “CMC of N-oxide relative to corresponding hydrochloride salt” value is listed as “twice”. For the same compound, the “CMC (Critical Micelle Concentration)” value in data set [7] (uptake of 1,6-diphenylhexatriene, 25 mM sodium phosphate pH 6.9, Table 1 and text) came out at 3 mM. Also, in data set [8], the “rate of BR solubilization (in words)” value is reported as “quite rapidly; also recorded: too rapid to monitor the loss of exciton coupling” and the “time to complete loss of exciton coupling” value is “less than 10 minutes”.

Source of the values: patent publication US6172262A, “Amphiphilic agents for membrane protein solubilization” (priority 1999, dated 2001).
